Test results from patent publication US12016336B2 (priority 2020, dated 2024).
Structures can show the parent of a compound that is named as a salt. Where two headings read alike, the source gives them in different places.

Key:
[1] = assay type: physicochemical
[2] = assay type: physicochemical; remark: listed apart in the source
[3] = room temperature, 90% H2O/D2O
[4] = Solubility in water; assay type: physicochemical
[5] = assay type: physicochemical; remark: listed apart in the source
[6] = test system: people; conditions: exposure in the air; cited from earlier work
[7] = test system: radish, peas, and lettuce plants; conditions: Carter et al., cited from earlier work
[8] = test system: corn; test: Growth of corn in pots exposed to dibutyldithiophosphate (Example 20); assay type: in vivo; conditions: 4 weeks
Protocol: Corn was planted in 6″ TEKU pots. The pots were packed finger tight with potting mix #4 from Beautiful Land Products. The corn seeds were planted approximately 1.5 inches deep. Fifty seeds of corn were planted for every loading of dibutyldithiophosphate ammonium salt. After the seeds were added to the soil the dibutyldithiophosphate ammonium salt was added as a fully dissolved aqueous solution. Tap water (500 mL) was added to a measured amount of the salt to yield desired amount in 10 mL After mixing well for 10 minutes, the aqueous solution was added to each plant via syringe (10 mL) immediately around and on the seed. After adding the salt, the plants were moved outside in full sunlight until harvest. The corn plants were watered daily.
The corn was harvested after 4 weeks. Plant height was taken by straightening the corn plant out by the leaves and measuring from the base of the shoot to the longest point on the leaf. After removing the roots, the weight of the shoot and leaves was measured using a balance.
Statistical analysis was performed using IBM SPSS Statistics 25. Non-parametric Kruskal-Wallis test was performed to determine significance. Data represented are mean±standard error with ** indicating α<0.05 and * indicating α<0.1.

[9] = test system: soybeans; test: Field trial: harvest yield of soybeans (Example 27); assay type: in vivo; conditions: 2 kg per acre, side dressing, versus not exposed
Source text: All essential plant nurtients (N, P, K, and S) were applied in non-limiting amounts. Prior to planting soybeans, the fields were fertilized with 60 lb acre of P2O5, 80 lb per acre of K20, and 20 lb per acre of sulfur. The soybean seeds were a 2.8-3.2 relative maturity planted at 120,000 to 140,000 seeds per acre. All field management were designed to effectively control weed and insect pests to optimize soybean growth and yield. The soybeans were planted and either 0, 0.5, 1.0, or 2.0 kg per acre of dibutyldithiophosphate was applied as a side dressing to the soybean plants. The dibutyldithiophosphate was dissolved in water and applied. The harvest weight was determined for each plot and corrected for slight differences in moisture content.

[10] = water buffered at pH 6.7, FIG. 4

Which “Rate of first-step of hydrolysis (85° C.)” value ([1]; 85° C., 90% H2O/D2O) does the source give for `CCCCOP(=S)(S)OCCCC` [Example 1, Dibutyldithiophosphate Ammonium Salt] here?
Its value is 0.00096 h⁻¹.

What about the “Time to complete hydrolysis” value ([1]; 85° C., 90% H2O/D2O, to phosphoric acid only) of the same molecule?
Its value is 180 days.

And the “Hydrolysis slower than the compound of Example 2” value ([1]; 85° C., versus Example 2)?
The value was 3.5 ×.

And the “Hydrolysis slower than the dithiophosphate of Example 3” value ([1]; 85° C., versus Example 3)?
Its value is 7.4 ×.

What about the “Hydrolysis slower than the dithiophosphate of Example 4” value ([1]; 85° C., versus Example 4) of the same molecule?
Its value is 1.4 ×.

What about the “Release of H2S (rank among the dithiophosphates)” value [2, 10] of the same molecule?
Its value is “lowest”.

What about the “Percent Degradation” value ([3]; 30 days, 31P NMR) of the same molecule?
The value was under 3%.

For `CC(C)[C@@H]1CC[C@@H](C)C[C@H]1OP(=S)([S-])O[C@@H]1C[C@H](C)CC[C@H]1C(C)C.[K+]` [Example 5], which “Release of H2S at 5 mM” value ([2]; pH 6.7) is on record?
Its value is “released H2S”.

And the “Solubility in water at 5 mM” value ([4]; concentration of 5 mM)?
Its value is “mostly insoluble in water”.

And the “Solubility in water of the potassium and triethylamine salts” value [4]?
The value was “insoluble in water”.

For `CC1(C)[C@@H]2CC[C@]1(C)[C@H](OP(=S)(S)O[C@@H]1C[C@H]3CC[C@@]1(C)C3(C)C)C2` [Example 7], which “Solubility in water of the potassium and triethylamine salts” value [4] is on record?
The value was “insoluble in water”.

For `CC(C)(C)OP(=S)([S-])OC(C)(C)C.[Na+]` [Example 8, Di(Tert-Butanol)Dithiophosphate Sodium Salt], which “Rate of hydrolysis slower at room temperature than at 85° C.” value ([1]; room temperature versus 85° C.) is on record?
The value was 2,600 ×.

What about the “Rate of first-step of hydrolysis” value ([1]; room temperature, 90% H2O/D2O) of the same molecule?
Its value is 0.0051 h⁻¹.

And the “ΔΔG^‡” value ([5]; 25° C. versus 85° C.)?
The value was 0.526 kcal/mol.

And the “ΔH^‡” value ([5]; rate constants measured from 25 to 85° C.)?
The value was 27.84 kcal/mol.

What about the “Release of H2S (rank among the dithiophosphates)” value [2, 10] of the same molecule?
The value was “highest”.

What about the “Percent degraded at day 12” value ([3]; day 12) of the same molecule?
Its value is 62%.

And the “Percent degraded at day 20” value ([3]; day 20)?
The value was 88%.

For `S=P(S)(Sc1ccccc1)Sc1ccccc1` [Example 13], which “Solubility in water of the potassium and triethylamine salts” value [4] is on record?
The value was “insoluble in water”.

With `S=P1(S)OCCS1` (stereo not drawn) [Example 14] as the molecule, how does the “Release of H2S (rank among the dithiophosphates)” value ([2]; pH 6.7) read?
Its value is “highest”.

Which “Level immediately dangerous to life and health” value [6] does the source give for `S` [Example H2S, hydrogen sulfide] here?
Its value is 100 ppm.

Which results are given for `C1COCCN1.COc1ccc(P(=S)(S)N2CCOCC2)cc1` (stereo not drawn) [GYY-4137]?
Growth of radish, peas, and lettuce plants [7]: increased the growth; Harvest yield of radishes ([7]; milligram loadings): doubled

Which “Increase in weight of the corn plants” value ([8]; 1 mg added to the soil adjacent to the seed, versus plants grown without) does the source give for `CCCCOP(=S)(S)OCCCC` [dibutyldithiophosphate] here?
The value was 39%.

And the “Weight of the corn plants (significance)” value ([8]; 1, 10, 50, and 75 mg loadings)?
Its value is “statistically significant improvements”.

What about the “Heights of the corn plants” value ([8]; all loadings) of the same molecule?
The value was “Little statistically significant difference”.

And the “Increase in harvest yield of soybeans” value [9]?
The value was 4.4%.
